Measurements as given in patent publication EP4542231A1, “METHODS FOR IDENTIFYING AND STRATIFYING CANCERS AND CANCER PATIENTS BASED ON P2X4 RECEPTOR EXPRESSION” (Johann-Wolfgang-Goethe-Universität Frankfurt am Main, priority 2023, dated 2025).

What was measured:
[1] = test system: ATP-induced S6 phosphorylation in PDTOs; details: selective P2X4, P2X1 or P2X7 inhibition; cited from earlier work
[2] = test system: human CRC tumor organoids; details: organoids that express P2X4 (CRC-organoid #1); previously shown, Schmitt et al, Nature, 2022; cited from earlier work
[3] = test system: human CRC tumor organoids; test: Survival of human CRC tumor organoids in response to 5-FU in the absence or presence of 5-BDBD; format: cell-based; details: colorectal cancer organoids that do not express P2X4 protein; 5-FU +/- P2X4 inhibitor (Fig. 3C)
Source text: (§1) Survival of SU-DHL5 cells in response to doxorubicin in the absence or presence of 5-BDBD (B). Survival of human CRC tumor organoids in response to 5-FU in the absence or presence of 5-BDBD (C).
(§2) The inventors had previously shown that blocking P2X4 would sensitize organoids to 5-FU treatment (Schmitt et al, Nature, 2022). The inventors now confirmed that these organoids indeed express P2X4 (Fig. 3A, CRC-organoid #1).

[4] = test system: SU-DHL5 lymphoma cells; test: Survival of SU-DHL5 cells in response to doxorubicin in the absence or presence of 5-BDBD; format: cell-based; details: lymphoma cells that do not express P2X4 protein; doxorubicin +/- 5-BDBD (Fig. 3B)
Source text: as §1, §2

| SMILES | ATP-induced S6 phosphorylation [1] | sensitization of organoids to 5-FU treatment [2] | sensitization towards P2X4 inhibition [3] | sensitization towards P2X4 inhibition [4] |
| --- | --- | --- | --- | --- |
| O=C(Nc1ccc(C(=O)Nc2ccc(C(=O)Nc3ccc(S(=O)(=O)O)c4cc(S(=O)(=O)O)cc(S(=O)(=O)O)c34)cc2)cc1)Nc1ccc(C(=O)Nc2ccc(C(=O)Nc3ccc(S(=O)(=O)O)c4cc(S(=O)(=O)O)cc(S(=O)(=O)O)c34)cc2)cc1 [NF279] | no effect | – | – | – |
| O=C1CN=C(c2cccc(Br)c2)c2oc3ccccc3c2N1 [5-BDBD, 5-(3-Bromophenyl)-1,3-dihydro-2H-Benzofuro[3,2-e]-1,4-diazepin-2-one] | reduced | sensitize | no sensitization | no sensitization |
| Clc1cccc(-c2nnnn2Cc2cccnc2)c1Cl [A-438079] | no effect | – | – | – |
